These are literature values, as cited in patent publication US9006451B1, “2-anilinonicotinyl based chalcones useful as potential anticancer agents and process for preparation thereof” (Council of Scientific and Industrial Research, priority 2013, dated 2015).

The test system of this data set is breast cancer cell line MCF7. As to conditions: cited from earlier work.

On to `COc1ccc(C(=O)/C=C/c2c(OC)cccc2OC)c(OC)c1` [B, (E)-1-(2,4-dimethoxyphenyl)-3-(2,6-dimethoxyphenyl)prop-2-en-1-one], for which the IC50 (J. Med. Chem. 2008, 51, 2307-2310, read-out: IC50 against breast cancer cell line MCF7) is 75 µM. In addition, where the note is “known chalcone, literature value”, the GI50 is 75 µM.

One may read the IC50 as the concentration at which inhibition is half-maximal. The term GI50 denotes the concentration giving 50% growth inhibition.
